Where two headings read alike, the source gives them in different places.
Columns and labels:
α-glucosidase = α-glucosidase enzyme inhibition assay (starch substrate, anthrone reagent, 640 nm); format: biochemical
Procedure: The α-glucosidase-inhibitory activity of all derivatives of metformin was tested using the method previously described. Three test tubes were marked as test (T), blank (B), and control (C). Then, 200 µL of substrate (starch) and enzyme (α-glucosidase) was added to test tubes T and C. The contents were mixed well, and then the test tubes were incubated at 37 °C for 30 min. After incubation, trichloroacetic acid was added to all test tubes, which were then centrifuged for 10 min. Free glucose was available after the reaction with anthrone reagent (1.5 mL). The contents in the test tubes were boiled for 15 min, and the absorbance was read at a wavelength at 640 nm. The percentage inhibition was calculated using the following formula:Percentage inhibition = OD of control − OD of test tube/OD of control × 100.

α-amylase = α-amylase enzyme inhibition assay (starch, dinitro-salicylic acid, 540 nm); format: biochemical
Procedure: All derivatives of metformin were analyzed for serum amylase inhibitory activity using the Yukihoko Hara method. Three test tubes were labeled as blank (B), test (T), and control (C). Then, 2.5 mL of phosphate buffer (pH 6.8) was added to each test tube. Next, 1 mL of starch and 1 mL of 2 N sodium chloride solution were added to each test tube. The test tubes were incubated at 37 °C for 10 min. After incubation, 0.5 mL of derivatives was added to test tube T, followed by 0.2 mL of enzyme (α-amylase). All contents were mixed well, and then the tube was incubated at 37 °C for 10 min. In the control test tube, normal saline (2 N), starch solution (1 mL), and enzyme solution (0.2 mL) were added before incubating at 37 °C for 10 min. In the blank test tube, only 5.7 mL of distilled water was added. Dinitro-salicylic acid (0.2 mL) was added to all test tubes. The contents were mixed well, and the test tubes were kept in a boiling water bath for 15 min. The intensity of reddish orange was read at 540 nm. The percentage inhibitory action of serum amylase was calculated using the following formula:Percentage inhibition = OD of control − OD of test tube/OD of control × 100.

[1] = 250 µg/mL, Table 5 (MCu series)
[2] = 250 µg/mL, Table 6 (MZn series)
[3] = 500 µg/mL, Table 5 (MCu series)
[4] = 500 µg/mL, Table 6 (MZn series)
[5] = 1000 µg/mL, Table 5 (MCu series)
[6] = 1000 µg/mL, Table 6 (MZn series)
[7] = 250 µg/mL, Table 8 (MCu series)
[8] = 250 µg/mL, Table 9 (MZn series)
[9] = 500 µg/mL, Table 8 (MCu series)
[10] = 500 µg/mL, Table 9 (MZn series)
[11] = 1000 µg/mL, Table 8 (MCu series)
[12] = 1000 µg/mL, Table 9 (MZn series)
[13] = Table 5 (MCu series), read-out: IC50
[14] = Table 8 (MCu series), read-out: IC50
[15] = Table 6 (MZn series), read-out: IC50
[16] = Table 9 (MZn series), read-out: IC50

| Compound | % Inhibition (α-glucosidase; [1]) | % Inhibition (α-glucosidase; [2]) | % Inhibition (α-glucosidase; [3]) | % Inhibition (α-glucosidase; [4]) | % Inhibition (α-glucosidase; [5]) | % Inhibition (α-glucosidase; [6]) | % Inhibition (α-amylase; [7]) | % Inhibition (α-amylase; [8]) | % Inhibition (α-amylase; [9]) | % Inhibition (α-amylase; [10]) | % Inhibition (α-amylase; [11]) | % Inhibition (α-amylase; [12]) | IC50 (α-glucosidase; [13]) | IC50 (α-amylase; [14]) | also measured |
| --- | --- | --- | --- | --- | --- | --- | --- | --- | --- | --- | --- | --- | --- | --- | --- |
| C[C@H]1O[C@H](O[C@H]2[C@H](O)[C@@H](O)[C@@H](O[C@H]3[C@H](O)[C@@H](O)C(O)O[C@@H]3CO)O[C@@H]2CO)[C@H](O)[C@@H](O)[C@@H]1N[C@H]1C=C(CO)[C@@H](O)[C@H](O)[C@H]1O (stereo partly drawn) [Acarbose, reference compound] | 42.65 ± 0.09% | 54.12 ± 0.09% | 62.41 ± 0.28% | 74.52 ± 0.19% | 91.83 ± 0.18% | 98.60 ± 0.10% | 42.73 ± 0.46% | 49.59 ± 0.34% | 67.52 ± 0.34% | 72.73 ± 0.46% | 92.73 ± 0.46% | 91.71 ± 0.46% |  |  | % Inhibition (α-glucosidase; 250 µg/mL, Table 4 (Met series)): 41.84 ± 0.08%; % Inhibition (α-glucosidase; 500 µg/mL, Table 4 (Met series)): 66.79 ± 0.09%; % Inhibition (α-glucosidase; 1000 µg/mL, Table 4 (Met series)): 89.01 ± 0.01%; % Inhibition (α-amylase; 250 µg/mL, Table 7 (Met series)): 49.65 ± 0.15%; % Inhibition (α-amylase; 500 µg/mL, Table 7 (Met series)): 72.33 ± 0.20%; % Inhibition (α-amylase; 1000 µg/mL, Table 7 (Met series)): 91.58 ± 0.36% |
| CN(C)C(=N)NC(=N)N=Cc1ccccc1.CN(C)C(=N)NC(=N)N=Cc1ccccc1.O.O.O.O.O.O=S(=O)([O-])[O-].[Cu+2] [MCu1] | 44.24 ± 0.10% |  | 61.46 ± 0.31% |  | 81.13 ± 0.08% |  | 19.44 ± 0.46% |  | 43.71 ± 0.17% |  | 73.31 ± 0.51% |  | 600 µM | 990 µM | IC50 (α-glucosidase): 421.7 µg/mL |
| CN(C)C(=N)NC(=N)N=Cc1ccccc1O.CN(C)C(=N)NC(=N)N=Cc1ccccc1O.O.O.O.O.O.O=S(=O)([O-])[O-].[Cu+2] [MCu2] | 31.13 ± 0.04% |  | 48.50 ± 0.22% |  | 77.32 ± 0.17% |  | 29.52 ± 0.28% |  | 44.56 ± 0.34% |  | 77.56 ± 0.34% |  |  | 790 µM |  |
| CN(C)C(=N)NC(=N)N=CC=Cc1ccccc1.CN(C)C(=N)NC(=N)N=CC=Cc1ccccc1.O.O.O.O.O.O=S(=O)([O-])[O-].[Cu+2] [MCu3] | 29.74 ± 0.08% |  | 49.26 ± 0.17% |  | 78.23 ± 0.17% |  | 25.41 ± 0.23% |  | 38.37 ± 0.40% |  | 69.40 ± 0.23% |  | 570 µM | 790 µM |  |
| C=NC(=N)NC(=N)N(C)C.C=NC(=N)NC(=N)N(C)C.O.O.O.O.O.O=S(=O)([O-])[O-].[Cu+2] [MCu4] | 18.64 ± 0.07% |  | 31.28 ± 0.08% |  | 51.20 ± 0.18% |  | 19.48 ± 0.40% |  | 31.46 ± 0.23% |  | 48.32 ± 0.51% |  | 500 µM | 300 µM |  |
| CC(C)=NC(=N)NC(=N)N(C)C.CC(C)=NC(=N)NC(=N)N(C)C.O.O.O.O.O.O=S(=O)([O-])[O-].[Cu+2] [MCu5] | 21.73 ± 0.12% |  | 38.21 ± 0.18% |  | 56.45 ± 0.20% |  | 12.46 ± 0.23% |  | 38.44 ± 0.40% |  | 61.38 ± 0.23% |  | 460 µM | 320 µM |  |
| CC(=NC(=N)NC(=N)N(C)C)c1ccccc1.CC(=NC(=N)NC(=N)N(C)C)c1ccccc1.O.O.O.O.O.O=S(=O)([O-])[O-].[Cu+2] [MCu6] | 10.74 ± 0.11% |  | 24.44 ± 0.15% |  | 53.44 ± 0.33% |  | 23.34 ± 0.51% |  | 45.45 ± 0.28% |  | 64.65 ± 0.28% |  | 290 µM | 320 µM |  |
| CN(C)C(=N)NC(=N)N=C(c1ccccc1)c1ccccc1.CN(C)C(=N)NC(=N)N=C(c1ccccc1)c1ccccc1.O.O.O.O.O.O=S(=O)([O-])[O-].[Cu+2] [MCu7] | 29.47 ± 0.18% |  | 37.37 ± 0.30% |  | 48.29 ± 0.28% |  | 15.37 ± 0.23% |  | 38.31 ± 0.46% |  | 55.43 ± 0.23% |  | 320 µM | 200 µM |  |
| COc1cc(C=NC(=N)NC(=N)N(C)C)ccc1O.COc1cc(C=NC(=N)NC(=N)N(C)C)ccc1O.O.O.O.O.O.O=S(=O)([O-])[O-].[Cu+2] [MCu8] | 41.50 ± 0.26% |  | 67.35 ± 35% |  | 83.14 ± 0.09% |  | 42.68 ± 0.46% |  | 61.35 ± 0.51% |  | 84.35 ± 0.51% |  | 720 µM | 900 µM | IC50 (α-amylase): 712.6 µg/mL |
| CN(C)C(=N)NC(=N)N=C(c1ccccc1)C(O)c1ccccc1.CN(C)C(=N)NC(=N)N=C(c1ccccc1)C(O)c1ccccc1.O.O.O.O.O.O=S(=O)([O-])[O-].[Cu+2] (stereo not drawn) [MCu9] | 15.23 ± 0.12% |  | 28.37 ± 0.20% |  | 49.49 ± 0.25% |  | 13.46 ± 0.23% |  | 34.66 ± 0.40% |  | 67.48 ± 0.40% |  | 200 µM | 130 µM |  |
| CN(C)C(=N)NC(=N)N=Cc1ccccc1.CN(C)C(=N)NC(=N)N=Cc1ccccc1.O.O.O.O.O.O=S(=O)([O-])[O-].[Zn+2] [MZn1] |  | 54.74 ± 0.15% |  | 62.48 ± 0.19% |  | 77.57 ± 0.20% |  | 31.46 ± 0.34% |  | 55.54 ± 0.34% |  | 82.60 ± 0.40% |  |  | IC50 (α-glucosidase; [15]): 700 µM; IC50 (α-amylase; [16]): 750 µM |
| CN(C)C(=N)NC(=N)N=Cc1ccccc1O.CN(C)C(=N)NC(=N)N=Cc1ccccc1O.O.O.O.O.O.O=S(=O)([O-])[O-].[Zn+2] [MZn2] |  | 43.55 ± 0.20% |  | 57.61 ± 0.15% |  | 71.37 ± 0.30% |  | 34.46 ± 0.23% |  | 69.32 ± 0.46% |  | 86.58 ± 0.40% |  |  | IC50 (α-glucosidase; [15]): 600 µM; IC50 (α-amylase): 484.9 µg/mL; IC50 (α-amylase; [16]): 670 µM |
| CN(C)C(=N)NC(=N)N=CC=Cc1ccccc1.CN(C)C(=N)NC(=N)N=CC=Cc1ccccc1.O.O.O.O.O.O=S(=O)([O-])[O-].[Zn+2] [MZn3] |  | 50.22 ± 0.15% |  | 58.18 ± 0.21% |  | 68.63 ± 0.20% |  | 13.59 ± 0.34% |  | 41.55 ± 0.34% |  | 78.57 ± 0.28% |  |  | IC50 (α-glucosidase; [15]): 540 µM; IC50 (α-amylase; [16]): 780 µM |
| C=NC(=N)NC(=N)N(C)C.C=NC(=N)NC(=N)N(C)C.O.O.O.O.O.O=S(=O)([O-])[O-].[Zn+2] [MZn4] |  | 11.30 ± 0.15% |  | 13.59 ± 0.20% |  | 14.71 ± 0.26% |  | 15.55 ± 0.34% |  | 31.49 ± 0.28% |  | 54.44 ± 0.28% |  |  | IC50 (α-amylase; [16]): 500 µM |

— article PMC9919699, “A Comprehensive Approach to Derivatization: Elemental Composition, Biochemical, and In Silico Studies of Metformin Derivatives Containing Copper and Zinc Complexes” (Molecules, 2023)
